Laboratory results reported in publication PMC5283653, “Structural aspects of nucleotide ligand binding by a bacterial 2H phosphoesterase” (PLoS ONE, 2017).
Where two headings read alike, the source gives them in different places. One block for each molecule: values may come before it.

Key:
[1] = target: T1, LigT (Escherichia coli, UniProt Z9E1N8ZL79); experiment: isothermal titration calorimetry; co-crystal structure; assay type: binding; details: 10 mM HEPES pH 7.5, 0.2 M NaCl, 0.1 mM TCEP, 25 °C, active site, read-out: dissociation constant
T1 construct: N-terminal His6 tag with TEV site, tag cut with TEV protease; expressed in E. coli BL21(DE3); 20 kDa; monomer in solution

[2] = target: T1, LigT; experiment: turnover to […]′-AMP seen in crystal; assay type: biochemical; details: 0.1 M Tris-HCl pH 7.4-7.5, 0.2 M MgCl2, PEG 8000; 5 mM ligand

Kd ([1]; product analogue): 40 µM
Structure (SMILES): NC(=O)c1ccc[n+]([C@@H]2O[C@H](COP(=O)(O)OP(=O)(O)OC[C@H]3O[C@@H](n4cnc5c(N)ncnc54)[C@H](OP(=O)(O)O)[C@@H]3O)[C@@H](O)[C@H]2O)c1 [NADP^+]

Structure (SMILES): Nc1ncnc2c1ncn2[C@@H]1O[C@H](CO)[C@H]2OP(=O)(O)O[C@H]21 [2′,3′-cAMP]
turnover to 2′-AMP seen in crystal [2]: the reaction product is bound in the crystals grown in the presence of the substrate

Kd ([1]; crystal grown with 2′,3′-cAMP): 140 µM
Structure (SMILES): Nc1ncnc2c1ncn2[C@@H]1O[C@H](CO)[C@@H](O)[C@H]1OP(=O)(O)O [2′-AMP]

Kd ([1]; second crystal form 5LDP): 70 µM
Structure (SMILES): Nc1ncnc2c1ncn2[C@@H]1O[C@H](COP(=O)(O)OP(=O)(O)OP(=O)(O)O)[C@@H](O)[C@H]1O [ATP]

Kd [1]: 180 µM
Structure (SMILES): Nc1ncnc2c1ncn2[C@@H]1O[C@H](CO)[C@@H](OP(=O)(O)O)[C@H]1O [3′-AMP]
